From patent publication US12109204B2, “Methods for treating muscular dystrophies” (The Regents of the University of California, priority 2018, dated 2024)

Experiments:
Type in all cases: cell-based, murine
SSPN, sarcospan [1] = experiment: SSPN gene expression by qPCR in mdx myotubes; conditions: for SSPN gene expression over vehicle: 1-10 μM, 48 hours, normalized to β-actin (FIG. 10d)
Description: (§1) RNA from myotubes treated for 48 hours was extracted from cells using Trizol-based (Thermo Fisher Scientific) phase separation. RNA concentrations were determined using a NanoDrop 1000 (Thermo Fisher Scientific) and 750 ng of RNA in a 20 μl reaction was reverse transcribed using iScript cDNA synthesis (Bio-Rad) with the following cycling conditions: 25° C. for 5 minutes, 42° C. for 30 minutes, 85° C. for 5 minutes. For quantitative PCR, SsoFast EvaGreen Supermix (Bio-Rad), 400 nM of each optimized forward and reverse primer (for primer descriptions see Table 1), and cDNA corresponding to 37.5 ng RNA were used to amplify cDNA measured by Applied Biosystems 7300 (Thermo Fisher Scientific) with the following reaction conditions: 55° C. for 2 minutes, 95° C. for 2 minutes, 40 cycles of 95° C. for 10 seconds and 62° C. for 30 seconds, and dissociation stage. Each sample was run in triplicate. Data was analyzed using the ddCT method and normalized to reference gene, GAPDH or β-actin, with vehicle-treated samples serving as the calibrator (relative expression of vehicle control=1). C2C12 cells (American Type Culture Collection) were grown at 37° C. with 5% CO2 in growth media containing DMEM (Gibco) with 20% FBS (Sigma-Aldrich). Upon reaching confluency, the media was replaced with differentiation media containing DMEM with 2% horse serum (Sigma-Aldrich). Conditionally immortalized H2K mdx myoblast cells with a nonsense mutation in exon 23 of dystrophin were a gift from Terrance Partridge, Ph.D. (Children's National Medical Center, Washington, D.C.). Cells were allowed to proliferate on 0.01% gelatin (Sigma-Aldrich) coated plates at 33° C. with 5% CO2 with growth media containing DMEM, 20% HI-FBS (Invitrogen), 2% L-glutamine (Sigma-Aldrich), 2% chicken embryo extract (Accurate Chemical), 1% penicillin-streptomycin (Sigma-Aldrich), and 20U/ml of fresh interferon gamma (Gibco). For differentiation, H2K mdx myoblasts were seeded on plates coated with 0.1 mg/ml matrigel (Corning) diluted in DMEM and grown in proliferation conditions. […]

[2] = tested on: hSSPN-Luciferase reporter cells (human sarcospan promoter reporter in C2C12); experiment: hSSPN-Luciferase reporter assay (Bright-Glo); conditions: doses between 3.9 nm to 1 μM, 48 hours (FIG. 10b)
Description: C2C12 immortalized murine myoblasts cultured in growth media consisting of DMEM (Gibco) with 20% Fetal Bovine Serum (Sigma-Aldrich) at 37° C. with 5% CO2 were transfected with the hSSPN-EGFP or hSSPN-Luciferase linearized plasmids using Lipofectamine 3000 Transfection Reagent (Thermo Fisher Scientific). Transfected cells were selected using 800 μg/ml of G418 (Sigma-Aldrich) for 4 weeks to generate stable cell lines expressing reporter protein under control of the human SSPN promoter.
hSSPN-Luciferase myoblasts were cultured as described above. After 48 hours of treatment, plates were allowed to equilibrate to room temperature before the media was aspirated using an EL406 combination washer dispenser at room temperature. Bright-Glo luciferase assay system reagent (Promega) and differentiation media were added to cells at a 1:2 dilution using a Multidrop 384. After a 3-minute incubation at room temperature, luminescence signal was quantified using an Envision plate reader (PerkinElmer). The relative luminescence units were analyzed to determine fold change of treated over vehicle treated cells.
Cells were treated for 48 hours beginning at day 2 of differentiation with DMSO (vehicle control, ATCC), felodipine (Sigma), nilvadipine (Sigma), alloxazine (Sigma), GW5074 (Sigma), methylthioadenosine (Santa Cruz Biotechnology), or ezutromid (Cayman Chemicals) diluted in cell type specific differentiation media at doses listed in the figures. For gene expression studies, each treatment was performed in duplicate. For protein studies, each treatment was performed with single or double replicates.

SSPN, sarcospan [3] = experiment: SSPN gene expression by qPCR in C2C12 wild-type myotubes; conditions: 1-10 μM, 48 hours, normalized to β-actin (FIG. 10c)
Description: as §1

MYOG, myogenin = experiment: MYOG gene expression by qPCR in C2C12 wild-type myotubes; conditions: 48 hours, normalized to β-actin (FIG. 12a)
Description: as §1, with “(Sigma-Aldrich).” for “(Sigma-Aldrich). Conditionally immortalized H2K mdx myoblast cells with a nonsense mutation in exon 23 of dystrophin were a gift from Terrance Partridge, Ph.D. (Children's National Medical Center, Washington, D.C.). Cells were allowed to proliferate on 0.01% gelatin (Sigma-Aldrich) coated plates at 33° C. with 5% CO2 with growth media containing DMEM, 20% HI-FBS (Invitrogen), 2% L-glutamine (Sigma-Aldrich), 2% chicken embryo extract (Accurate Chemical), 1% penicillin-streptomycin (Sigma-Aldrich), and 20U/ml of fresh interferon gamma (Gibco). For differentiation, H2K mdx myoblasts were seeded on plates coated with 0.1 mg/ml matrigel (Corning) diluted in DMEM and grown in proliferation conditions.”

Structure (SMILES): CCOC(=O)C1=C(C)NC(C)=C(C(=O)OC)C1c1cccc(Cl)c1Cl (stereo not shown) [Felodipine, 5-O-ethyl 3-O-methyl 4-(2,3-dichlorophenyl)-2,6-dimethyl-1,4-dihydropyridine-3,5-dicarboxylate]
- SSPN gene expression over vehicle (SSPN, sarcospan [1]): increases sarcospan gene expression
- SSPN gene expression over vehicle (SSPN, sarcospan [1]; listed as felodipine): increase in SSPN gene expression
- SSPN gene expression relative to vehicle (SSPN, sarcospan [1]; 48h, normalized to GAPDH, n=2 (FIG. 11d)): only increased sarcospan levels
- hSSPN-Luciferase reporter activity, counterscreen [2]: increased activity
- SSPN gene expression over vehicle (SSPN, sarcospan [3]): increases sarcospan gene expression
- SSPN gene expression over vehicle (SSPN, sarcospan [3]; listed as felodipine): increased over vehicle
- myogenin gene expression (MYOG, myogenin): increases
